The values below come from patent US20200369674A1, “ANTI-PAIN COMPOUND AND PREPARATION METHOD THEREOF” (LUNAN PHARMACEUTICAL GROUP CORPORATION, priority 2017, published 2020).

Assay [1] relates to ICR mice. Briefly: Xylene-induced ear swelling test in mice (Effect Example 6). The class given is in vivo. The following applies: 2 mg/kg i.g., 30 μL xylene one hour after administration. The procedure:
(§1) ICR mice, body weight 18 g-22 g, half of them being male and the other half being female, provided by the Department of Laboratory Animals, Peking University. The animals were raised in a standard environment: temperature 23±1° C., relative humidity 55±5%, light-dark cycle 12 h/12 h, and fed with standard pellet feed.
Mice were randomly divided into 5 groups, 8 mice per group, half of them being male and the other half being female. Vehicle control group (double-distilled water, i.g.), dexamethasone control group (2 mg/kg, i.g.), compound DXL-A-22 group (1 mg/kg, i.g.), and compound DXL-A-24 group (1 mg/kg, i.g.) were set. All drugs were dissolved in double-distilled water before administration, and given by intragastric administration at 0.1 mL/10 g. One hour after administration, 30 μL of xylene was evenly smeared on the inner and outer sides of right ear of mouse to cause inflammation. After 0.5 hour, the left and right ears of mouse were cut, and circular ear pieces of the same size were punched at the same position on the left and right ears using the punch (diameter 6 mm) respectively, and weighed for the weights of the left and right ear pieces. The difference between the weight of the right ear after applying xylene and the weight of the left ear without applying xylene was used as swelling degree index (i.e., swelling degree). The swelling degree was calculated according to formula (1). The intensity of anti-inflammatory effect was expressed as inhibition rate (%), and the inhibition rate (%) was calculated according to formula (2).
Swelling degree=weight of right ear piece−weight of left ear piece (1)
Inflammation inhibition rate (%)=(ear swelling degree in vehicle control group−ear swelling degree in drug group)/ear swelling degree in vehicle control group×100% (2)

In assay [2] the test system is ICR mice. Description: Carrageenan-induced paw swelling in mice. The assay is classed as in vivo. As to conditions: 0.5 mg/kg i.g. How it is done:
as §1
The mouse was fixed in a special holder, and both hind feet were exposed. Before the test, a line was drawn at 0.5 cm below the ankle joint of mouse with a marker, and used as a mark for measuring plantar volume. 30 minutes before administration the volume of right hind foot was measured as basic threshold. The mice were randomly divided into 5 groups, 8 mice per group, half of them being male and the other half being female. Vehicle control group (double-distilled water, i.g.), dexamethasone control group (0.5 mg/kg, i.g.), compound DXL-A-22 group (1 mg/kg, i.g.), and DXL-A-24 group (1 mg/kg, i.g.) were set. All drugs were dissolved in double-distilled water before administration, and were administered at 0.1 mL/10 g. Immediately after intragastric administration, 20 μL of 5% carrageenan saline solution was injected subcutaneously in the right hind foot of the mice, and the plantar volumes were measured at time points of 0.5 h, 1 h and 2 h after injection. The difference between the plantar volume of right foot after injection of carrageenan and the plantar volume of right foot before injection was used as swelling degree index (i.e., swelling degree). The swelling degree was calculated according to formula (3). The intensity of anti-inflammatory effect was expressed as inhibition rate (%), and the inhibition rate (%) was calculated according to formula (4).
Swelling degree=plantar volume of right foot after injection−plantar volume of right foot before injection (3)
Inflammation inhibition rate (%)=(plantar swelling degree in vehicle control group−plantar swelling degree in drug administration group)/plantar swelling degree in vehicle control group×100% (4)
In general terms: The carrageenan paw model is a standard test of acute inflammation.

Molecules are shown by their SMILES.

Take `C[C@@H]1C[C@H]2[C@@H]3CCC4=CC(=O)C=C[C@]4(C)[C@@]3(F)[C@@H](O)C[C@]2(C)[C@@]1(O)C(=O)CO` [Dexamethasone, reference compound]: the “Inhibition rate (%)” value in assay [1] turned out to be 69.28%. In addition, the “Swelling degree” value in assay [1] (mean±SD) is reported as 2.93 ± 0.32 mg. In addition, the “0.5 h inhibition rate (%)” value in assay [2] (0.5 h after carrageenan injection) worked out at 69.55%. In addition, the “0.5 h swelling degree (μL)” value in assay [2] (0.5 h after carrageenan injection, mean±SD) is 26.00 ± 14.21**/ μL. Further, the “1 h inhibition rate (%)” value in assay [2] (1 h after carrageenan injection) is listed as 77.06%. For the same compound, the “1 h swelling degree (μL)” value in assay [2] (1 h after carrageenan injection, mean±SD) is reported as 19.88 ± 10.09**/ μL. The “2 h inhibition rate (%)” value in assay [2] (2 h after carrageenan injection) is listed as 84.64%. Moreover, in assay [2] (2 h after carrageenan injection, mean±SD), the “2 h swelling degree (μL)” value is reported as 17.13 ± 11.54**/ μL.
